In US9884063B2, “Amido-substituted azole compounds” (Bayer Pharma Aktiengesellschaft, priority 2014, dated 2018) one finds IC50 data, which are given here for 17 molecules.

For one assay, the target named is T1, TNKS2 (Homo sapiens, UniProt Q9H2K2).
T1 sequence (Q9H2K2 1-1166): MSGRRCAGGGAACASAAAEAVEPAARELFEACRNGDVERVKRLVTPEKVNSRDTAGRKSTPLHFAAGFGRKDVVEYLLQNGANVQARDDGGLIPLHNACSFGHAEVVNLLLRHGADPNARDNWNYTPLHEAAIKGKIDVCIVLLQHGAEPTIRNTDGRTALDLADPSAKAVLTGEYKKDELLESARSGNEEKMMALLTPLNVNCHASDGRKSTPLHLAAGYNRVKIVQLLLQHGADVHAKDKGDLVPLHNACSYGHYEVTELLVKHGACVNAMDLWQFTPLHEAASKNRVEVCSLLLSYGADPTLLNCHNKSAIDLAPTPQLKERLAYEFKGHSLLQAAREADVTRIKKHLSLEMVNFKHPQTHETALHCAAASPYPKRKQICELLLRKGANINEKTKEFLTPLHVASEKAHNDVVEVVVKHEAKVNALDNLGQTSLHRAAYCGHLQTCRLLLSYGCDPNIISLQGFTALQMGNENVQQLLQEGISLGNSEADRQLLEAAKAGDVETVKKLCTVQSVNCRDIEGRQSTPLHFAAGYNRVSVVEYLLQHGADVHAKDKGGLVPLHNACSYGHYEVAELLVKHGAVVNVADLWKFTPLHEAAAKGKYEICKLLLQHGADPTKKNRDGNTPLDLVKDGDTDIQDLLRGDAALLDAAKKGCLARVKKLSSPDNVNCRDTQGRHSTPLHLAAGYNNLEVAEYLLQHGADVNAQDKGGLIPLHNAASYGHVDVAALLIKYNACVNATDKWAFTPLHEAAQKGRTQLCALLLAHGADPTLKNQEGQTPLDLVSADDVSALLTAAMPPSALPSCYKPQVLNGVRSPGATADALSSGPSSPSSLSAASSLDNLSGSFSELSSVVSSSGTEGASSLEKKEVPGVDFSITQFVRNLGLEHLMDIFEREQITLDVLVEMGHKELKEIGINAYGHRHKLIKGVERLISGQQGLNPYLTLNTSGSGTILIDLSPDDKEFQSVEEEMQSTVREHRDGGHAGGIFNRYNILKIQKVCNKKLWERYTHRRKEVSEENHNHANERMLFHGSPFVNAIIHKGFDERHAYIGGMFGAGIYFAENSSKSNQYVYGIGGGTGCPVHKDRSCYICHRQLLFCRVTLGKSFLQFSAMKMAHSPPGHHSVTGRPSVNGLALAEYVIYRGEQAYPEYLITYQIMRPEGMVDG
Briefly: Modified TNKS2 Assay 3 (BPS kit #80578, biotin-NAD+, 96 well). Particulars: human TNKS2, BPS kit #80578, 96 well. The format is biochemical. In short, it runs like this:
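Commercial kit assay measuring TNKS2-catalysed incorporation of biotin-labelled NAD+ into a protein substrate, detected by streptavidin-HRP chemiluminescence. Run per manufacturer's protocol; IC50 is the concentration halving the normalised signal.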

Assay [1] has as its system wildtype Wnt signaling cascade. Briefly: HEK293 TOP Assay (Super TopFlash luciferase reporter, Wnt-3a stimulated). The format is cell-based. As to conditions: Homo sapiens, HEK293 TOP reporter cell line, Wnt-3a at EC50, 16 hours incubation, compound dilution series 50 μM to 15 nM. In short, it runs like this:
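Compounds (50 μM down to 15 nM, 3.16-fold steps, in CAFTY buffer pH 7.4, 2 mM Ca2+, 0.01% BSA) tested in parallel on TOP and FOP HEK293 reporter lines to define selective wildtype Wnt inhibition. Pathway driven by recombinant human Wnt-3a applied at 2500–5 ng/ml in two-fold dilutions.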
(In general: A reporter such as luciferase makes a cellular process visible.)

For assay [2], the system named is HEK293 FOP control reporter cell line. Briefly: HEK293 FOP Assay (FOP control vector luciferase reporter). The assay is classed as cell-based. As to conditions: Homo sapiens, HEK293 FOP control reporter cell line, 16 hours incubation, compound dilution series 50 μM to 15 nM. In short, it runs like this: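 Compound series 50 μM to 15 nM, 3.16-fold steps, were diluted in CAFTY buffer (pH 7.4, 2 mM Ca2+, 0.01% BSA) and tested alongside the TOP reporter line. Human Wnt-3a was added at 2500–5 ng/ml in two-fold steps. The control HEK293 line stably holds an FOP vector whose TCF elements are randomized and non-functional.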

Structures can show the parent of a compound that is named as a salt. Where only a bound is given, the exact number is not on record here.

By IC50 is commonly meant the concentration needed to halve the response being measured. A high value points to weaker potency. Take `O=C(Nc1ccc(NC(=O)c2nc[nH]c2C(=O)NCCN2CCC(F)(F)CC2)cc1)c1ccc(F)cc1Cl` [Example 224, N^4-{4-[(2-chloro-4-fluorobenzoyl)amino]phenyl}-N^5-[2-(4,4-difluoropiperidin-1-yl)ethyl]-1H-imidazole-4,5-dicarboxamide]: the IC50 against TNKS2 turned out to be 140 nM; in assay [1] (HEK293, 16 h), 1250 nM; in assay [2], 27000 nM.

On to `O=C(Nc1ccc(NC(=O)c2nc[nH]c2C(=O)NCCN2CCCC(F)(F)C2)cc1)c1ccc(F)cc1Cl` [Example 225, N^4-{4-[(2-chloro-4-fluorobenzoyl)amino]phenyl}-N^5-[2-(3,3-difluoropiperidin-1-yl)ethyl]-1H-imidazole-4,5-dicarboxamide], for which the half-maximal inhibitory concentration (IC50) against TNKS2 worked out at 50 nM; in assay [1] (HEK293, 16 h) it was 800 nM; in assay [2], 44000 nM.

`O=C(Nc1ccc(NC(=O)c2nc[nH]c2C(=O)NCCN2CCOCC2)cc1)c1ccc(F)cc1Cl` [Example 227, N^4-{4-[(2-chloro-4-fluorobenzoyl)amino]phenyl}-N^5-[2-(morpholin-4-yl)ethyl]-1H-imidazole-4,5-dicarboxamide]: the IC50 against TNKS2 worked out at 20 nM; in assay [1] (HEK293, 16 h), 120 nM; in assay [2], 23000 nM.

Turning to `O=C(Nc1ccc(NC(=O)c2nc[nH]c2C(=O)NCCN2CCC(F)CC2)cc1)c1ccc(F)cc1Cl` [Example 230, N^4-{4-[(2-chloro-4-fluorobenzoyl)amino]phenyl}-N^5-[2-(4-fluoropiperidin-1-yl)ethyl]-1H-imidazole-4,5-dicarboxamide], the IC50 on TNKS2 came out at 20 nM; in assay [1] (HEK293, 16 h) it was 200 nM; in assay [2], 27000 nM.

Regarding `O=C(Nc1ccc(NC(=O)c2nc[nH]c2C(=O)NCCN2CC[C@H](F)C2)cc1)c1ccc(F)cc1Cl` [Example 232, N^4-{4-[(2-chloro-4-fluorobenzoyl)amino]phenyl}-N^5-{2-[(3S)-3-fluoropyrrolidin-1-yl]ethyl}-1H-imidazole-4,5-dicarboxamide], the IC50 against TNKS2 is 40 nM; in assay [1] (HEK293, 16 h) it was 220 nM; in assay [2], 35000 nM.

Consider `O=C(Nc1ccc(NC(=O)c2nc[nH]c2C(=O)NC2CCOCC2)cc1)c1ccc(F)cc1Cl` [Example 234, N^4-{4-[(2-chloro-4-fluorobenzoyl)amino]phenyl}-N^5-(tetrahydro-2H-pyran-4-yl)-1H-imidazole-4,5-dicarboxamide], for which the IC50 is 20 nM against TNKS2; 460 nM in assay [1] (HEK293, 16 h); 16000 nM in assay [2].

On to `C[C@H]1CCCCN1CCNC(=O)c1[nH]cnc1C(=O)Nc1ccc(NC(=O)c2ccc(F)cc2Cl)cc1` [Example 266, N^4-{4-[(2-chloro-4-fluorobenzoyl)amino]phenyl}-N^5-{2-[(25)-2-methylpiperidin-1-yl]ethyl}-1H-imidazole-4,5-dicarboxamide formic acid salt], for which the IC50 against TNKS2 is 0.9 nM; in assay [1] (HEK293, 16 h), 30 nM; in assay [2], 20000 nM.

Consider `CC(CN1CCOCC1)NC(=O)c1[nH]cnc1C(=O)Nc1ccc(NC(=O)c2ccc(F)cc2Cl)cc1` (stereo not drawn) [Example 268, N^4-{4-[(2-chloro-4-fluorobenzoyl)amino]phenyl}-N^5-[1-(morpholin-4-yl)propan-2-yl]-1H-imidazole-4,5-dicarboxamide], for which the IC50 is 3 nM against TNKS2; 60 nM in assay [1] (HEK293, 16 h); 41000 nM in assay [2].

For the molecule `O=C(Nc1ccc(NC(=O)c2nc[nH]c2C(=O)NCCCN2CCCC2)cc1)c1ccc(F)cc1Cl` [Example 274, N^4-{4-[(2-chloro-4-fluorobenzoyl)amino]phenyl}-N^5-[3-(pyrrolidin-1-yl)propyl]-1H-imidazole-4,5-dicarboxamide], the IC50 against TNKS2 worked out at 9 nM; in assay [1] (HEK293, 16 h) it was 290 nM; in assay [2], 45000 nM.

As to `O=C(Nc1ccc(NC(=O)c2nc[nH]c2C(=O)NCCN2CCC[C@@H](F)C2)cc1)c1ccc(F)cc1Cl` [Example 277, N^4-{4-[(2-chloro-4-fluorobenzoyl)amino]phenyl}-N^5-{2-[(3R)-3-fluoropiperidin-1-yl]ethyl}-1H-imidazole-4,5-dicarboxamide], the IC50 was 30 nM against TNKS2; 120 nM in assay [1] (HEK293, 16 h); 36000 nM in assay [2].

As for `O=C(Nc1ccc(NC(=O)c2nc[nH]c2C(=O)N[C@@H]2CCNC2)cc1)c1ccc(F)cc1Cl` [Example 282, N^4-{4-[(2-chloro-4-fluorobenzoyl)amino]phenyl}-N^5-[(3R)-pyrrolidin-3-yl]-1H-imidazole-4,5-dicarboxamide hydrochloride salt], the IC50 against TNKS2 amounted to 10 nM; in assay [1], 970 nM; in assay [2] (HEK293, 16 h), 50000 nM.

For the molecule `O=C(Nc1ccc(NC(=O)c2nc[nH]c2C(=O)NCC2CCCN2)cc1)c1ccc(F)cc1Cl` (stereo not drawn) [Example 284, N^4-{4-[(2-chloro-4-fluorobenzoyl)amino]phenyl}-N^5-(pyrrolidin-2-ylmethyl)-1H-imidazole-4,5-dicarboxamide hydrochloride salt], the IC50 against TNKS2 came to 10 nM; in assay [1], 680 nM; in assay [2] (HEK293, 16 h) it was 50000 nM.

Turning to `CNC(=O)c1nc[nH]c1C(=O)Nc1ccc(NC(=O)c2cccc(C)c2Cl)cc1` [Example 346, N^5-{4-[(2-chloro-3-methylbenzoyl)amino]phenyl}-N^4-methyl-1H-imidazole-4,5-dicarboxamide], the IC50 at TNKS2 is over 500 nM; in assay [1] (HEK293, 16 h) it was 900 nM; in assay [2], 26000 nM.

On to `CCN1CCCC1CNC(=O)c1nc[nH]c1C(=O)Nc1ccc(NC(=O)c2ccc(F)cc2Cl)cc1` (stereo not drawn) [Example 390, N^5-{4-[(2-chloro-4-fluorobenzoyl)amino]phenyl}-N^4-[(1-ethylpyrrolidin-2-yl)methyl]-1H-imidazole-4,5-dicarboxamide], for which the IC50 on TNKS2 was found to be 3 nM; in assay [1] (HEK293, 16 h) it was 250 nM; in assay [2], 18000 nM.

On to `CN1CCN(CCCNC(=O)c2nc[nH]c2C(=O)Nc2ccc(NC(=O)c3ccc(F)cc3Cl)cc2)CC1` [Example 392, N^5-{4-[(2-chloro-4-fluorobenzoyl)amino]phenyl}-N^4-[3-(4-methylpiperazin-1-yl)propyl]-1H-imidazole-4,5-dicarboxamide], for which the IC50 against TNKS2 was 7 nM; in assay [1] (HEK293, 16 h), 160 nM; in assay [2], 18000 nM.

Regarding `CC1CCN(CCCNC(=O)c2nc[nH]c2C(=O)Nc2ccc(NC(=O)c3ccc(F)cc3Cl)cc2)CC1` [Example 400, N^5-{4-[(2-chloro-4-fluorobenzoyl)amino]phenyl}-N^4-[3-(4-methylpiperidin-1-yl)propyl]-1H-imidazole-4,5-dicarboxamide], the IC50 against TNKS2 is 20 nM; in assay [1] (HEK293, 16 h), 360 nM; in assay [2] it was 13000 nM.

As to `CCN1CCC[C@H]1CNC(=O)c1nc[nH]c1C(=O)Nc1ccc(NC(=O)c2ccc(F)cc2Cl)cc1` [Example 404, N^5-{4-[(2-chloro-4-fluorobenzoyl)amino]phenyl}-N^4-{[(2S)-1-ethylpyrrolidin-2-yl]methyl}-1H-imidazole-4,5-dicarboxamide], the IC50 on TNKS2 amounted to 0.7 nM; in assay [1] (HEK293, 16 h), 90 nM; in assay [2], 29000 nM.
